Measurements published in ChEMBL document CHEMBL4251597, “Discovery and evolution of aloperine derivatives as a new family of HCV inhibitors with novel mechanism” (Eur J Med Chem, 2018).
The source made the active and inactive calls. The rule behind the calls is not given here.

Tests used:
Hepatitis C virus [1] = test: Antiviral activity against HCV J6/JFH/JC-1 infected in human Huh7.5 cells assessed as inhibition of viral core protein levels at 10 uM treated with fresh media containing compound every 2 days in presence of NS3/4A inhibitor simeprevir by Western blot method; format: functional, organism-based; conditions: Hepacivirus hominis
[2] = Cytotoxicity against human Huh7.5 cells after 72 hrs by MTT assay; format: cell-based
Hepatitis C virus [3] = test: Antiviral activity against HCV J6/JFH/JC-1 infected in human Huh7.5 cells assessed as inhibition of NS3/4A A156T mutant levels at 20 uM treated with fresh media containing compound every 2 days by Western blot method; format: functional, organism-based; conditions: Hepacivirus hominis
Hepatitis C virus [4] = test: Antiviral activity against HCV J6/JFH/JC-1 infected in human Huh7.5 cells assessed as inhibition of NS3/4A protein levels at 0.5 uM by Western blot method; format: functional, organism-based; conditions: Hepacivirus hominis, TDE = time-dependent effect
Hepatitis C virus [5] = test: Antiviral activity against HCV J6/JFH/JC-1 infected in human Huh7.5 cells assessed as inhibition of viral core protein levels at 20 uM preincubated for 2 hrs followed addition of Huh7.5 cells for 4 hrs measured within 72 hrs by Western blot method; format: functional, organism-based; conditions: Hepacivirus hominis
Hepatitis C virus [6] = test: Antiviral activity against HCV infected in human GS4.3 cells assessed as inhibition of viral core protein levels at 20 uM treated with fresh media containing compound every 2 days measured after 6 days by Western blot method; format: functional, organism-based; conditions: Hepacivirus hominis
Hepatitis C virus [7] = test: Antiviral activity against HCV J6/JFH/JC-1 infected in human Huh7.5 cells assessed as inhibition of viral core protein levels after 72 hrs by Western blot method; format: functional, organism-based; conditions: Hepacivirus hominis
[8] = Acute toxicity in po dosed Kunming mouse measured for 7 days; format: organism-based; conditions: in vivo
Hepatitis C virus [9] = test: Antiviral activity against HCV J6/JFH/JC-1 infected in human Huh7.5 cells assessed as inhibition of viral core protein levels at 0.5 uM by Western blot method; format: functional, organism-based; conditions: Hepacivirus hominis, TDE = time-dependent effect
Hepatitis C virus [10] = test: Antiviral activity against HCV J6/JFH/JC-1 infected in human Huh7.5 cells assessed as inhibition of viral core protein levels at 10 uM treated with fresh media containing compound every 2 days in presence of NS5B inhibitor sofosbuvir by Western blot method; format: functional, organism-based; conditions: Hepacivirus hominis
Hepatitis C virus [11] = test: Antiviral activity against HCV infected in human GS4.3 cells assessed as inhibition of NS3/4A levels at 20 uM treated with fresh media containing compound every 2 days measured after 6 days by Western blot method; format: functional, organism-based; conditions: Hepacivirus hominis
[12] = Selectivity index, ratio of CC50 for human Huh7.5 cells to EC50 for HCV J6/JFH/JC-1; format: toxicity; conditions: read-out: Ratio CC50/EC50
Hepatitis C virus [13] = test: Antiviral activity against HCV J6/JFH/JC-1 infected in human Huh7.5 cells harboring NS3/4A D168V mutant assessed as inhibition of viral core protein levels at 20 uM treated with fresh media containing compound every 2 days by Western blot method; format: functional, organism-based; conditions: Hepacivirus hominis
Hepatitis C virus [14] = test: Antiviral activity against HCV J6/JFH/JC-1 infected in human Huh7.5 cells assessed as inhibition of NS3/4A levels after 72 hrs by Western blot method; format: functional, organism-based; conditions: Hepacivirus hominis
Hepatitis C virus [15] = test: Antiviral activity against HCV J6/JFH/JC-1 infected in human Huh7.5 cells harboring NS3/4A A156T mutant assessed as inhibition of viral core protein levels at 20 uM treated with fresh media containing compound every 2 days by Western blot method; format: functional, organism-based; conditions: Hepacivirus hominis
Hepatitis C virus [16] = test: Antiviral activity against HCV J6/JFH/JC-1 infected in human Huh7.5 cells assessed as inhibition of viral core protein levels at 20 uM incubated for 2 to 24 hrs measured within 72 hrs by Western blot method; format: functional, organism-based; conditions: Hepacivirus hominis
Hepatitis C virus [17] = test: Antiviral activity against HCV J6/JFH/JC-1 infected in human Huh7.5 cells assessed as inhibition of NS3/4A levels at 20 uM incubated for 2 to 24 hrs measured within 72 hrs by Western blot method; format: functional, organism-based; conditions: Hepacivirus hominis
Hepatitis C virus [18] = test: Antiviral activity against 22.5 to 90 IU/cell of HCV J6/JFH/JC-1 infected in human Huh7.5 cells assessed as inhibition of NS3/4A levels at 20 uM treated with fresh media containing compound every 2 days by Western blot method; format: functional, organism-based; conditions: Hepacivirus hominis
[19] = MRT in mouse at 25 mg/kg, po after 0.25 to 6 hrs; format: ADME, organism-based; conditions: in vivo
[20] = biological target: Hepatitis C virus serine protease, NS3/NS4A (Hepatitis C virus) (UniProt D2K2A8+A3EZI9); test: Inhibition of HCV NS3/4A protease at 200 uM; format: protein-complex assay; conditions: Hepacivirus hominis
[21] = Cmax in mouse at 25 mg/kg, po after 0.25 to 6 hrs; format: ADME, organism-based; parameters: dose 25 mg/kg, route oral; conditions: in vivo
Hepatitis C virus [22] = test: Antiviral activity against HCV J6/JFH/JC-1 infected in human Huh7.5 cells assessed as inhibition of NS3/4A levels at 10 uM treated with fresh media containing compound every 2 days in presence of NS5B inhibitor sofosbuvir by Western blot method; format: functional, organism-based; conditions: Hepacivirus hominis
Hepatitis C virus [23] = test: Antiviral activity against HCV J6/JFH/JC-1 infected in human Huh7.5 cells assessed as inhibition of viral core protein levels at 10 uM treated with fresh media containing compound every 2 days in presence of NS5A inhibitor daclatasvir by Western blot method; format: functional, organism-based; conditions: Hepacivirus hominis
Hepatitis C virus [24] = test: Antiviral activity against HCV J6/JFH/JC-1 infected in human Huh7.5 cells assessed as inhibition of viral RNA replication after 72 hrs by qRT-PCR method; format: functional, organism-based, Hepacivirus hominis; conditions: J6/JFH/JC-1, Huh7.5, 72 h
Hepatitis C virus [25] = test: Antiviral activity against 22.5 to 90 IU/cell of HCV J6/JFH/JC-1 infected in human Huh7.5 cells assessed as inhibition of viral core protein levels at 20 uM treated with fresh media containing compound every 2 days by Western blot method; format: functional, organism-based; conditions: Hepacivirus hominis
Hepatitis C virus [26] = test: Antiviral activity against HCV J6/JFH/JC-1 infected in human Huh7.5 cells assessed as inhibition of NS3/4A D168V mutant levels at 20 uM treated with fresh media containing compound every 2 days by Western blot method; format: functional, organism-based; conditions: Hepacivirus hominis
Hepatitis C virus [27] = test: Antiviral activity against HCV J6/JFH/JC-1 infected in human Huh7.5 cells assessed as inhibition of NS3/4A levels at 10 uM treated with fresh media containing compound every 2 days in presence of NS3/4A inhibitor simeprevir by Western blot method; format: functional, organism-based; conditions: Hepacivirus hominis
Hepatitis C virus [28] = test: Antiviral activity against HCV J6/JFH/JC-1 infected in human Huh7.5 cells harboring […] S282T mutant assessed as inhibition of viral core protein levels at 20 uM treated with fresh media containing compound every 2 days by Western blot method; format: functional, organism-based; conditions: Hepacivirus hominis
[29] = AUC (0 to t) in mouse at 25 mg/kg, po after 0.25 to 6 hrs; format: ADME, organism-based; parameters: time upper 6 hr, time lower 0.25 hr, dose 25 mg/kg, route oral; conditions: in vivo
[30] = Half life in mouse at 25 mg/kg, po after 0.25 to 6 hrs; format: ADME, organism-based; conditions: in vivo
Hepatitis C virus [31] = test: Antiviral activity against HCV J6/JFH/JC-1 infected in human Huh7.5 cells assessed as inhibition of NS3/4A S282T mutant levels at 20 uM treated with fresh media containing compound every 2 days by Western blot method; format: functional, organism-based; conditions: Hepacivirus hominis
Hepatitis C virus [32] = test: Antiviral activity against HCV J6/JFH/JC-1 infected in human Huh7.5 cells assessed as inhibition of NS3/4A levels at 20 uM preincubated for 2 hrs followed addition of Huh7.5 cells for 4 hrs measured within 72 hrs by Western blot method; format: functional, organism-based; conditions: Hepacivirus hominis
Hepatitis C virus [33] = test: Antiviral activity against HCV J6/JFH/JC-1 infected in human Huh7.5 cells assessed as inhibition of NS3/4A levels at 10 uM treated with fresh media containing compound every 2 days in presence of NS5A inhibitor daclatasvir by Western blot method; format: functional, organism-based; conditions: Hepacivirus hominis
[34] = Tmax in mouse at 25 mg/kg, po after 0.25 to 6 hrs; format: ADME, organism-based; conditions: in vivo
Hepatitis C virus [35] = test: Antiviral activity against HCV J6/JFH/JC-1 infected in human Huh7.5 cells assessed as inhibition of viral core protein levels at 0.05 uM preincubated for 2 hrs followed addition of Huh7.5 cells for 4 hrs measured within 72 hrs by Western blot method; format: functional, organism-based; conditions: Hepacivirus hominis
Hepatitis C virus [36] = test: Antiviral activity against HCV infected in human GS4.3 cells assessed as inhibition of viral core protein levels at 0.5 uM treated with fresh media containing compound every 2 days measured after 6 days by Western blot method; format: functional, organism-based; conditions: Hepacivirus hominis
Hepatitis C virus [37] = test: Antiviral activity against HCV infected in human GS4.3 cells assessed as inhibition of NS3/4A levels at 0.5 uM treated with fresh media containing compound every 2 days measured after 6 days by Western blot method; format: functional, organism-based; conditions: Hepacivirus hominis
Hepatitis C virus [38] = test: Antiviral activity against HCV J6/JFH/JC-1 infected in human Huh7.5 cells assessed as inhibition of NS3/4A levels at 0.05 uM preincubated for 2 hrs followed by centrifugation for 4 hrs and subsequent addition of Huh7.5 cells measured within 72 hrs by Western blot method; format: functional, organism-based; conditions: Hepacivirus hominis
Hepatitis C virus [39] = test: Antiviral activity against HCV J6/JFH/JC-1 infected in human Huh7.5 cells assessed as inhibition of NS3/4A levels at 0.05 uM preincubated for 2 hrs followed addition of Huh7.5 cells for 4 hrs measured within 72 hrs by Western blot method; format: functional, organism-based; conditions: Hepacivirus hominis
Hepatitis C virus [40] = test: Antiviral activity against HCV J6/JFH/JC-1 infected in human Huh7.5 cells assessed as inhibition of NS3/4A A156T mutant levels at 0.01 to 1 uM treated with fresh media containing compound every 2 days by Western blot method; format: functional, organism-based; conditions: Hepacivirus hominis
Hepatitis C virus [41] = test: Antiviral activity against HCV J6/JFH/JC-1 infected in human Huh7.5 cells assessed as inhibition of viral core protein levels at 0.05 uM preincubated for 2 hrs followed by centrifugation for 4 hrs and subsequent addition of Huh7.5 cells measured within 72 hrs by Western blot method; format: functional, organism-based; conditions: Hepacivirus hominis
Hepatitis C virus [42] = test: Antiviral activity against HCV J6/JFH/JC-1 infected in human Huh7.5 cells harboring NS3/4A A156T mutant assessed as inhibition of viral core protein levels at 0.01 to 1 uM treated with fresh media containing compound every 2 days by Western blot method; format: functional, organism-based; conditions: Hepacivirus hominis

CN1CCN(S(=O)(=O)N2CCCC3=C[C@H]4C[C@H](CN5CCCC[C@H]45)[C@@H]32)CC1
inhibition (Hepatitis C virus [1]): Active | CC50 at 72 h [2]: > 500 µM | inhibition (Hepatitis C virus [3]): Active | inhibition (Hepatitis C virus [4]): Tde | inhibition (Hepatitis C virus [5]): Active | inhibition (Hepatitis C virus [6]): Active | inhibition (Hepatitis C virus [7]): Dose-dependent effect | LD50 at 168 h [8]: > 1000 mg/kg | inhibition (Hepatitis C virus [9]): Tde | inhibition (Hepatitis C virus [10]): Active | inhibition (Hepatitis C virus [11]): Active | selectivity ratio [12]: > 140 | inhibition (Hepatitis C virus [13]): Active | inhibition (Hepatitis C virus [14]): Dose-dependent effect | inhibition (Hepatitis C virus [15]): Active | inhibition (Hepatitis C virus [16]): Active | inhibition (Hepatitis C virus [17]): Active | inhibition (Hepatitis C virus [18]): Active | MRT [19]: 6.11 h | inhibition [20]: inactive | Cmax [21]: 1.37 µM | inhibition (Hepatitis C virus [22]): Active | inhibition (Hepatitis C virus [23]): Active | EC50 (Hepatitis C virus [24]): 3.56 µM | inhibition (Hepatitis C virus [25]): Active | inhibition (Hepatitis C virus [26]): Active | inhibition (Hepatitis C virus [27]): Active | inhibition (Hepatitis C virus [28]): Active | AUC(0-t) [29]: 7.6 µM·h | half-life [30]: 9.47 h | inhibition (Hepatitis C virus [31]): Active | inhibition (Hepatitis C virus [32]): Active | inhibition (Hepatitis C virus [33]): Active | Tmax [34]: 1 h

CCC[C@H](NC(=O)[C@@H]1[C@H]2CCC[C@H]2CN1C(=O)[C@@H](NC(=O)[C@@H](NC(=O)c1cnccn1)C1CCCCC1)C(C)(C)C)C(=O)C(=O)NC1CC1 [TELAPREVIR]
CC50 at 72 h [2]: 25.2 µM | inhibition (Hepatitis C virus [35]): Active | inhibition (Hepatitis C virus [4]): Tde | inhibition (Hepatitis C virus [36]): Active | inhibition (Hepatitis C virus [9]): Tde | inhibition (Hepatitis C virus [37]): Active | selectivity ratio [12]: 840 | inhibition (Hepatitis C virus [38]): inactive | inhibition (Hepatitis C virus [39]): Active | EC50 (Hepatitis C virus [24]): 0.03 µM | inhibition (Hepatitis C virus [40]): inactive | inhibition (Hepatitis C virus [41]): inactive | inhibition (Hepatitis C virus [42]): inactive
